Legend:
DU-145 = experiment: NCI SRB cytotoxicity, Prostate DU-145; assay type: cell-based, human; conditions: DU-145, Prostate, 48 h
Description: (§1) For each compound, dose response curves for each cell line were measured at a minimum of five concentrations at 10 fold dilutions. A protocol of 48 h continuous drug exposure was used, and a sulforhodamine B (SRB) protein assay was used to estimate cell viability or growth. The concentration causing 50% cell growth inhibition (GI50), total cell growth inhibition (TGI, 0% growth) and 50% cell death (LC50, −50% growth) compared with the control was calculated.

786-0 = experiment: NCI SRB cytotoxicity, Renal 786-0; assay type: cell-based, human; conditions: 786-0, Renal, 48 h
Description: (§2) Biological Activity: In vitro biological activity studies were carried out at National Cancer Institute (U.S.A.).
as §1

SNB-75 = experiment: NCI SRB cytotoxicity, CNS SNB-75; assay type: cell-based, human; conditions: SNB-75, CNS, 48 h
Description: as §2, §1

NCI-H460 = experiment: NCI SRB cytotoxicity, Non-small-cell lung NCI-H460; assay type: cell-based, human; conditions: 48 h
Description: as §2, §1

K-62 = experiment: NCI SRB cytotoxicity, Leukemia K-62; assay type: cell-based, human; conditions: K-62, Leukemia, 48 h
Description: as §2, §1

SF-268 = experiment: NCI SRB cytotoxicity, CNS SF-268; assay type: cell-based, human; conditions: SF-268, CNS, 48 h
Description: as §2, §1

RPMI-8226 = experiment: NCI SRB cytotoxicity, Leukemia RPMI-8226; assay type: cell-based, human; conditions: RPMI-8226, Leukemia, 48 h
Description: as §1

MDA-MB-435 = experiment: NCI SRB cytotoxicity, Breast MDA-MB-435; assay type: cell-based, human; conditions: MDA-MB-435, Breast, 48 h
Description: as §2, §1

SK-MEL-5 = experiment: NCI SRB cytotoxicity, Melanoma SK-MEL-5; assay type: cell-based, human; conditions: SK-MEL-5, Melanoma, 48 h
Description: as §2, §1

UO-31 = experiment: NCI SRB cytotoxicity, Renal UO-31; assay type: cell-based, human; conditions: UO-31, Renal, 48 h
Description: as §1

UACC-257 = experiment: NCI SRB cytotoxicity, Melanoma UACC-257; assay type: cell-based, human; conditions: UACC-257, Melanoma, 48 h
Description: as §2, §1

human tumor cell lines = experiment: NCI in vitro cytotoxicity SRB assay, mean graph midpoints over the panel; assay type: cell-based; conditions: 48 h continuous exposure
Description: as §2, §1

OVCAR-8 = experiment: NCI SRB cytotoxicity, Ovarian OVCAR-8; assay type: cell-based, human; conditions: OVCAR-8, Ovarian, 48 h
Description: as §2, §1

BT-549 = experiment: NCI SRB cytotoxicity, Breast BT-549; assay type: cell-based, human; conditions: BT-549, Breast, 48 h
Description: as §2, §1

IGROVI = experiment: NCI SRB cytotoxicity, Ovarian IGROVI; assay type: cell-based, human; conditions: 48 h
CAKI-1 = experiment: NCI SRB cytotoxicity, Renal CAKI-1; assay type: cell-based, human; conditions: CAKI-1, Renal, 48 h
Description: as §2, §1

M14 = experiment: NCI SRB cytotoxicity, Melanoma M14; assay type: cell-based, human; conditions: 48 h
Description: as §2, §1

HT-29 = experiment: NCI SRB cytotoxicity, Colon HT-29; assay type: cell-based, human; conditions: HT-29, Colon, 48 h
Description: as §2, §1

HOP-92 = experiment: NCI SRB cytotoxicity, Non-small-cell lung HOP-92; assay type: cell-based, human; conditions: HOP-92, Non-small-cell lung, 48 h
Description: as §2, §1

ACHN = experiment: NCI SRB cytotoxicity, Renal ACHN; assay type: cell-based, human; conditions: 48 h
Description: as §2, §1

SF-295 = experiment: NCI SRB cytotoxicity, CNS SF-295; assay type: cell-based, human; conditions: SF-295, CNS, 48 h
Description: as §2, §1

NCI-H23 = experiment: NCI SRB cytotoxicity, Non-small-cell lung NCI-H23; assay type: cell-based, human; conditions: 48 h
Description: as §2, §1

OVCAR-5 = experiment: NCI SRB cytotoxicity, Ovarian OVCAR-5; assay type: cell-based, human; conditions: OVCAR-5, Ovarian, 48 h
Description: as §2, §1

OVCAR-3 = experiment: NCI SRB cytotoxicity, Ovarian OVCAR-3; assay type: cell-based, human; conditions: OVCAR-3, Ovarian, 48 h
Description: as §2, §1

MCF7 = experiment: NCI SRB cytotoxicity, Breast MCF7; assay type: cell-based, human; conditions: 48 h
Description: as §2, §1

COLO 205 = experiment: NCI SRB cytotoxicity, Colon COLO 205; assay type: cell-based, human; conditions: COLO 205, Colon, 48 h
Description: as §2, §1

EKVX = experiment: NCI SRB cytotoxicity, Non-small-cell lung EKVX; assay type: cell-based, human; conditions: 48 h
Description: as §2, §1

HOP-62 = experiment: NCI SRB cytotoxicity, Non-small-cell lung HOP-62; assay type: cell-based, human; conditions: HOP-62, Non-small-cell lung, 48 h
Description: as §2, §1

NCI-H322 = experiment: NCI SRB cytotoxicity, Non-small-cell lung NCI-H322; assay type: cell-based, human; conditions: 48 h
Description: as §2, §1

HS578T = experiment: NCI SRB cytotoxicity, Breast HS578T; assay type: cell-based, human; conditions: 48 h
Description: as §2, §1

NCI/ADR-RES = experiment: NCI SRB cytotoxicity, Breast NCI/ADR-RES; assay type: cell-based, human; conditions: 48 h
Description: as §2, §1

SK-MEL-28 = experiment: NCI SRB cytotoxicity, Melanoma SK-MEL-28; assay type: cell-based, human; conditions: SK-MEL-28, Melanoma, 48 h
Description: as §2, §1

UACC-62 = experiment: NCI SRB cytotoxicity, Melanoma UACC-62; assay type: cell-based, human; conditions: UACC-62, Melanoma, 48 h
Description: as §2, §1

TK-10 = experiment: NCI SRB cytotoxicity, Renal TK-10; assay type: cell-based, human; conditions: TK-10, Renal, 48 h
Description: as §2, §1

KM-12 = experiment: NCI SRB cytotoxicity, Colon KM-12; assay type: cell-based, human; conditions: KM-12, Colon, 48 h
Description: as §2, §1

PC-3 = experiment: NCI SRB cytotoxicity, Prostate PC-3; assay type: cell-based, human; conditions: PC-3, Prostate, 48 h
Description: as §1

## COc1cc2c(cc1OCCCCCN1CCN(CCCCCOc3cc4c(cc3OC)C(=O)N3CCC[C@H]3C=N4)CC1)N=C[C@@H]1CCCN1C2=O [Compound VId]
DU-145
  Log GI 50: −5.37 mol/L
  Log LC 50: −4.00 mol/L
786-0
  Log GI 50: −5.61 mol/L
  Log LC 50: −4.00 mol/L
SNB-75
  Log GI 50: −4.51 mol/L
  Log LC 50: −4.00 mol/L
NCI-H460
  Log GI 50: −5.49 mol/L
  Log LC 50: −4.00 mol/L
K-62
  Log GI 50: −5.46 mol/L
  Log LC 50: −4.20 mol/L
SF-268
  Log GI 50: −5.44 mol/L
RPMI-8226
  Log GI 50: −5.59 mol/L
  Log LC 50: −4.54 mol/L
MDA-MB-435
  Log GI 50: −5.37 mol/L
  Log LC 50: −4.00 mol/L
SK-MEL-5
  Log GI 50: −5.48 mol/L
  Log LC 50: −4.00 mol/L
UO-31
  Log GI 50: −4.00 mol/L
  Log LC 50: −4.00 mol/L
UACC-257
  Log GI 50: −4.75 mol/L
  Log LC 50: −4.00 mol/L
Human tumor cell lines
  Log10 GI50 mean graph midpoint (MG_MID): −5.14
  Log10 LC50 mean graph midpoint (MG_MID): −4.04
  Log10 TGI mean graph midpoint (MG_MID): −4.26
OVCAR-8
  Log GI 50: −4.67 mol/L
  Log LC 50: −4.00 mol/L
BT-549
  Log GI 50: −5.31 mol/L
  Log LC 50: −4.00 mol/L
IGROVI
  Log GI 50: −5.13 mol/L
  Log LC 50: −4.00 mol/L
CAKI-1
  Log GI 50: −5.77 mol/L
  Log LC 50: −4.00 mol/L
M14
  Log GI 50: −4.76 mol/L
HT-29
  Log GI 50: −5.02 mol/L
  Log LC 50: −4.00 mol/L
HOP-92
  Log GI 50: −5.46 mol/L
  Log LC 50: −4.00 mol/L
ACHN
  Log GI 50: −4.63 mol/L
  Log LC 50: −4.00 mol/L
SF-295
  Log GI 50: −5.30 mol/L
  Log LC 50: −4.00 mol/L
NCI-H23
  Log GI 50: −5.18 mol/L
  Log LC 50: −4.00 mol/L
OVCAR-5
  Log GI 50: −5.33 mol/L
  Log LC 50: −4.00 mol/L
OVCAR-3
  Log GI 50: −5.32 mol/L
  Log LC 50: −4.00 mol/L
MCF7
  Log GI 50: −5.69 mol/L
  Log LC 50: −4.00 mol/L
COLO 205
  Log GI 50: −5.49 mol/L
  Log LC 50: −4.00 mol/L
EKVX
  Log GI 50: −4.33 mol/L
  Log LC 50: −4.00 mol/L
HOP-62
  Log GI 50: −4.00 mol/L
  Log LC 50: −4.00 mol/L
NCI-H322
  Log GI 50: −4.65 mol/L
  Log LC 50: −4.00 mol/L
HS578T
  Log GI 50: −5.12 mol/L
  Log LC 50: −4.00 mol/L
NCI/ADR-RES
  Log GI 50: −4.00 mol/L
  Log LC 50: −4.00 mol/L
SK-MEL-28
  Log GI 50: −4.71 mol/L
  Log LC 50: −4.00 mol/L
UACC-62
  Log GI 50: −5.64 mol/L
  Log LC 50: −4.00 mol/L
TK-10
  Log LC 50: −4.00 mol/L
KM-12
  Log GI 50: −5.25 mol/L
  Log LC 50: −4.00 mol/L
PC-3
  Log GI 50: −5.41 mol/L
  Log LC 50: −4.00 mol/L

Source: patent US7015215B2, “Pyrrolo[2,1-c][1,4] benzodiazepines compounds and process thereof” (Council of Scientific and Industrial Research, priority 2003, dated 2006)
